Laboratory results published in patent US20110117120A1, “Plasmodium falciparum HLA class I restricted T-cell epitopes” (priority 2009, published 2011).

Key:
Assay type in all cases: cell-based, human
PBMC = test: ELISpot IFN-γ assay with PBMC of Ad5-PfCA immunized volunteers (Example 1); settings: for IFN-γ ELISpot activity of individual 15-mer peptide: threshold 40 SFC/million; for ELISpot activity of 1 month PBMC: v005, PBMC 1 month
Method: In order to assess the pools for their ability to induce T-cell responses, specifically CD 8^+ responses, PBMC, 1 month post immunization were used, from the five volunteers in Table 1, in ELISpot assays. In these studies, IFN-γ activity was measured in response to exposure to the peptide pools. The assays were conducted essentially as described by Wang, et al., Proc. Natl. Acad. Sci. (U.S.A.), 98: 10817-22.
The stimulation of circulating antigen-specific T cell lymphocytes was evaluated by measurement of γ-IFN induction by ELISPOT. The ELISpot assay was conducted using thawed cryopreserved PBMC at 200 K cells per well. Pre-challenge cells were taken at day 21 and day 22 post AdPfCA vaccination. Cells were suspended in […] complete medium and were stimulated with AMA1 peptides suspended in […] of complete medium. Peptide concentrations used in assays was 10 μg/ml of each peptide tested. Cultures were incubated for 36 h at 37° C., 5% CO2. Depending on availability of cells, each PBMC sample was assayed in duplicate, triplicate, or quadruplicate and the number of IFN-γ-secreting cells recognized as spot-forming cells (SFC) was enumerated using an automated ELISpot reader. In duplicate assays, all values were used in analysis. For triplicate or quadruplicate assays, outliers were rejected if any single value contributed more than 50% of the standard deviation of the triplicate (or quadruplicate) and if its value was three-fold greater or less than the average of the remaining two (or three) values. The mean spot forming cells (SFCs) obtained in negative control wells were subtracted from the value of each test well from the same sample. Negative counts generated by this background subtraction were converted to zero. The mean spot number of the test sample was then calculated and expressed as SFC/million PBMCs. Values obtained with pre-vaccinated samples were subtracted from the post-vaccination values.

[1] = system: CD4+ and CD8+ T cells of PBMC; test: Intracellular cytokine staining (ICS) of CD4+ and CD8+ T cells; settings: for CD8^+ T cell IFN-γ response in ICS: HLA-matched volunteers, FIG. 1 upper panel
Method: ICS was performed on PBMCs with costimulatory antibodies anti-CD28 and […] (obtained from BD Bioscience™, San Jose, Calif.). The peptides were used at the same concentrations as in ELISpot assays. Stimulants were added t cells and incubated at 37° C. with 5% CO2 for 2 hr. Golgi Plug™ (Brefeldin A) (BD Bioscience™, San Jose, Calif.) was added at a final concentration of 0.6 μL/mL and incubated at 37° C. with 5% CO2 overnight. Cells were stained with anti-CD3 (Alexa Fluor 700™), anti-CD4 (PerCP™), and anti-CD8 Pacific Blue™ (obtained from BD Bioscience™, San Jose, Calif.). and 1 μg/mL of live/dead fixable blue dye, incubated and washed. Cells were permeabilized with Cytofix/Cytoperm™ solution (obtained from BD Bioscience™, San Jose, Calif.), incubated and washed. Cells were stained intracellularly with anti-CD3 ([…]), anti-CD4 (PerCP™), and anti-CD8 Pacific Blue™, anti-IFN-γ FITC, anti-TNF PE, and anti-IL2 APC, incubated and washed. Cells were resuspended and the entire available sample was acquired by flowcytometry. The gating strategy included progressively measuring total cells; viable cells only; lymphocytes; T cells; CD4^+ CD8^+ populations; and a specific cell type expressing a specific cytokine. Histograms were used to determine the total production of IFN-γ, IL2, and TNF for the CD4^+ and CD8^+ populations. Boolean gates were used to determine cells producing combinations of cytokines.
In these studies, T cells containing IFN-γ, IL2, or TNFα, were gated into different subsets: IFN-γ+, IL2+, TNFα−; IFN-γ+, IL2-, TNFα+; IFN-γ+, IL2+, TNFα+; or IFN-γ+, IL2−, TNFα− T cells, and stimulated with the predicted epitopes and their parent peptide pool. The frequency of CD8^+ T cells producing total IFN-γ was far greater than CD4^+ T cell responses (FIG. 1, upper panel), which were extremely low.

[2] = system: CD8+ or CD4+ T-cell depleted PBMC; test: ELISpot IFN-γ assay after CD8+ or CD4+ T-cell depletion (Example 2, Table 6); settings: for CD4^+ depletion, test: CD4+ depleted; for CD8^+ Depletion, test: CD8+ depleted
Method: PBMC population depletion was conducted using anti-human CD4+ and anti-CD8^+ coated Dynabeads™ M-450 (Dynal, Great Neck, N.Y.) following the manufacturer's instructions. Mock depletion was done with Dynabeads coated with Sheep anti-mouse IgG. Flow cytometry confirmed that T-cell subset depletions were >99% in all experiments. The data is presented as the % effect (decrease) in activity after T cell subset depletion. […]
The results of this study, summarized in Table 6, identified other CD8^+ epitopes, associated specific HLA class I genes.

[3] = system: CD4+ or CD8+ T cell depleted PBMC; test: ELISpot IFN-γ assay after CD4+ or CD8+ T cell depletion of PBMC (Example 1); parameters: % change of ELISpot activity, CD8 dep vs control: concentration or dose not given beside the values; ELISpot IFN-γ activity, Control dep / ELISpot IFN-γ activity, CD4 dep / ELISpot IFN-γ activity, CD8 dep: unit not given here; settings: for ELISpot IFN-γ activity, CD4 dep: CD4+ T cells depleted; for ELISpot IFN-γ activity, CD8 dep: CD8+ T cells depleted; for ELISpot IFN-γ activity, Control dep: mock depletion
Method: PBMC population depletion was conducted using anti-human CD4+ and anti-CD8^+ coated Dynabeads™ M-450 (Dynal, Great Neck, N.Y.) following the manufacturer's instructions. Mock depletion was done with Dynabeads coated with Sheep anti-mouse IgG. Flow cytometry confirmed that T-cell subset depletions were >99% in all experiments. The data is presented as the % effect (decrease) in activity after T cell subset depletion.
Finally, we wanted to confirm that indeed the responses to AMA14e were mediated by CD8^+ T cells. We compared activity to AMA14e in ELISpot depletion assays and ICS CD4^+ or CD8^+ T cell IFN-γ assays with Ap1-12 and recombinant AMA1 protein with v001 and v005 (FIG. 3). CD8^+ T cell depletion reduced ELISpot activity to AMA14e by about 85% in v001 and 95% in v005.

[4] = Vol. 1550-10, 12 wk post challenge
[5] = Vol. 1550-11, 4 wk post challenge

CEIFNVKPTCLINNS [Ap8-12]
IFN-γ ELISpot activity of individual 15-mer peptide (PBMC; Volunteer 005): 127 SFC/10^6

CNKLVFELSASDQPK [Ap7-7]
IFN-γ ELISpot activity of individual 15-mer peptide (PBMC; Volunteer 001): 77 SFC/10^6

EDIPHVNEFPAIDLF [Ap7-3]
IFN-γ ELISpot activity of individual 15-mer peptide (PBMC; Volunteer 001): 139 SFC/10^6

EMRHFYKDNKYVKNL [Ap4-11]
IFN-γ ELISpot activity of individual 15-mer peptide (PBMC; Volunteer 005): 65 SFC/10^6 | ELISpot activity of 1 month PBMC (PBMC): 65 sfc/m

ETQKCEIFNV (listed as Plasmodium falciparum) [Epitope 10]
CD8^+ T cell IFN-γ response in ICS [1]: very weak CD8^+ IFN-γ responses | multifunctional CD8^+ T cell responses in ICS ([1]; v008 and v012, any two of IFN-γ, IL-2, TNF-α, FIG. 1 lower panel): did not appear to induce multifunctional responses

ETQKCEIFNVKPTCL [Ap8-11]
IFN-γ ELISpot activity of individual 15-mer peptide (PBMC; Volunteer 001): 48 SFC/10^6 | IFN-γ ELISpot activity of individual 15-mer peptide (PBMC; Volunteer 005): 218 SFC/10^6 | IFN-γ ELISpot activity of individual 15-mer peptide (PBMC; Volunteer 008): 48 SFC/10^6

FKADRYKSHGKGYNW [Ap8-6]
IFN-γ ELISpot activity of individual 15-mer peptide (PBMC; Volunteer 012): 143 SFC/10^6 | CD4^+ depletion % change [2, 4]: 26% | CD8^+ Depletion % change [2, 4]: 100% | CD4^+ depletion, test [2, 4]: 81 SFC/10^6 | CD8^+ Depletion, test [2, 4]: 0 SFC/10^6 | CD4^+ depletion, control [2, 4]: 109 SFC/10^6 | CD8^+ Depletion, control [2, 4]: 109 SFC/10^6

HPKEYEYPL (listed as Plasmodium falciparum) [Epitope 9]
CD8^+ T cell IFN-γ response in ICS [1]: equal or more CD8^+ IFN-γ than the parent peptide pool

HVNEFPAIDLFECNK [Ap7-4]
IFN-γ ELISpot activity of individual 15-mer peptide (PBMC; Volunteer 001): 96 SFC/10^6

INEHREHPKEYEYPL [Ap1-11]
IFN-γ ELISpot activity of individual 15-mer peptide (PBMC; Volunteer 002): 180 SFC/10^6 | IFN-γ ELISpot activity of individual 15-mer peptide (PBMC; Volunteer 005): 322 SFC/10^6 | % change of ELISpot activity, CD4 dep vs control ([3]; V002): −18% | % change of ELISpot activity, CD8 dep vs control ([3]; V002): −94% | ELISpot IFN-γ activity, CD4 dep ([3]; V002): 152 | ELISpot IFN-γ activity, CD8 dep ([3]; V002): 11 | ELISpot IFN-γ activity, Control dep ([3]; V002): 185 | % change of ELISpot activity, CD4 dep vs control ([3]; V005): −37% | % change of ELISpot activity, CD8 dep vs control ([3]; V005): −100% | ELISpot IFN-γ activity, CD4 dep ([3]; V005): 145 | ELISpot IFN-γ activity, CD8 dep ([3]; V005): 0 | ELISpot IFN-γ activity, Control dep ([3]; V005): 233

KEYEYPLHQEHTYQQ [Ap1-13]
IFN-γ ELISpot activity of individual 15-mer peptide (PBMC; Volunteer 001): 42 SFC/10^6 | % change of ELISpot activity, CD4 dep vs control ([3]; V001): +133% | % change of ELISpot activity, CD8 dep vs control ([3]; V001): −76% | ELISpot IFN-γ activity, CD4 dep ([3]; V001): 168 | ELISpot IFN-γ activity, CD8 dep ([3]; V001): 17 | ELISpot IFN-γ activity, Control dep ([3]; V001): 72

LLSAFEFTYMINFGR [Ap1-3]
IFN-γ ELISpot activity of individual 15-mer peptide (PBMC; Volunteer 001): 48 SFC/10^6 | % change of ELISpot activity, CD4 dep vs control ([3]; V001): −32% | % change of ELISpot activity, CD8 dep vs control ([3]; V001): −56% | ELISpot IFN-γ activity, CD4 dep ([3]; V001): 58 | ELISpot IFN-γ activity, CD8 dep ([3]; V001): 37 | ELISpot IFN-γ activity, Control dep ([3]; V001): 85

LMSPMTLDEMRHFYK [Ap4-9]
IFN-γ ELISpot activity of individual 15-mer peptide (PBMC; Volunteer 002): 189 SFC/10^6 | IFN-γ ELISpot activity of individual 15-mer peptide (PBMC; Volunteer 005): 395 SFC/10^6 | % change of ELISpot activity, CD4 dep vs control ([3]; V005): −32% | % change of ELISpot activity, CD8 dep vs control ([3]; V005): −100% | ELISpot IFN-γ activity, CD4 dep ([3]; V005): 137 | ELISpot IFN-γ activity, CD8 dep ([3]; V005): 1 | ELISpot IFN-γ activity, Control dep ([3]; V005): 204

MTLDEMRHFYKDNKY [Ap4-10]
IFN-γ ELISpot activity of individual 15-mer peptide (PBMC; Volunteer 002): 82 SFC/10^6 | IFN-γ ELISpot activity of individual 15-mer peptide (PBMC; Volunteer 005): 118 SFC/10^6

NQYLKDGGFAFPPTE [Ap4-5]
IFN-γ ELISpot activity of individual 15-mer peptide (PBMC; Volunteer 005): 50 SFC/10^6 | ELISpot activity of 1 month PBMC (PBMC): 50 sfc/m

NSTCRFFVCK (listed as Plasmodium falciparum)
CD4^+ depletion % change [2, 5]: 26% | CD8^+ Depletion % change [2, 5]: 100% | CD4^+ depletion, test [2, 5]: 153 SFC/10^6 | CD8^+ Depletion, test [2, 5]: 0 SFC/10^6 | CD4^+ depletion, control [2, 5]: 207 SFC/10^6 | CD8^+ Depletion, control [2, 5]: 207 SFC/10^6 | T-cell response in ELISpot ([2]; primarily attributable to CD8^+ T-cell response): stimulated a significant T-cell response

QNSDVYRPINEHREH [Ap1-9]
IFN-γ ELISpot activity of individual 15-mer peptide (PBMC; Volunteer 001): 48 SFC/10^6

RYKSHGKGYNWGNYN [Ap8-7]
CD4^+ depletion % change [2, 4]: 26% | CD8^+ Depletion % change [2, 4]: 99% | CD4^+ depletion, test [2, 4]: 54 SFC/10^6 | CD8^+ Depletion, test [2, 4]: 1 SFC/10^6 | CD4^+ depletion, control [2, 4]: 72 SFC/10^6 | CD8^+ Depletion, control [2, 4]: 72 SFC/10^6

TSNNEVVVKEEYKDE [Ap10-13]
IFN-γ ELISpot activity of individual 15-mer peptide (PBMC; Volunteer 001): 250 SFC/10^6 | IFN-γ ELISpot activity of individual 15-mer peptide (PBMC; Volunteer 012): 233 SFC/10^6 | % change of ELISpot activity, CD4 dep vs control ([3]; V001): +148% | % change of ELISpot activity, CD8 dep vs control ([3]; V001): −88% | ELISpot IFN-γ activity, CD4 dep ([3]; V001): 252 | ELISpot IFN-γ activity, CD8 dep ([3]; V001): 13 | ELISpot IFN-γ activity, Control dep ([3]; V001): 103 | % change of ELISpot activity, CD4 dep vs control ([3]; V012): +14% | % change of ELISpot activity, CD8 dep vs control ([3]; V012): −100% | ELISpot IFN-γ activity, CD4 dep ([3]; V012): 90 | ELISpot IFN-γ activity, CD8 dep ([3]; V012): 0 | ELISpot IFN-γ activity, Control dep ([3]; V012): 79
